Source: US9708251B2, “Unsaturated fatty alcohol alkoxylates from natural oil metathesis” (Stepan Company, priority 2012, dated 2017)

Tests used:
[1] = 0.4 wt. % active, 342 ppm hard water
Protocol: Surfactant solution (100 mL) is carefully transferred to a stainless-steel mixing cup, then mixed at high speed (27K rpm) using a Hamilton Beach mixer for 10 s. The contents are quickly poured into a 100-mL graduated cylinder to the 100-mL mark, and a stopwatch is immediately started. The amount of liquid settling in the cylinder is recorded every 15 s for 4 min. Less liquid drained indicates greater foam stability.

[2] = Surfactant phase behavior study (cross-polarized microscopy); assay type: physicochemical; settings: room temperature
Protocol: Phase behavior is observed using an Olympus BH-2 cross-polarized microscope at 100-400× and room temperature (20° C. to 22° C.). The inventive monounsaturated alcohol ethoxylates are compared with their saturated analogs.
Samples are prepared by diluting the most concentrated product gradually with deionized water. When the surfactant concentration approaches a phase transition, the concentration is varied at 2-4% intervals to estimate the phase boundary. The actives level reported in Table 4 for each phase boundary is within ±5% of the true boundary.
Samples are loaded between a microscope slide and cover glass and are allowed to equilibrate before observation. Microscopic texture is analyzed and used to determine the phase. For some samples, an AR 2000 rheometer (TA Instruments) is used to measure viscosity at 25° C. to further verify phase behavior.

[3] = Agrichemical solvent analysis: active solubility; assay type: physicochemical; settings: room temperature
Protocol: Solvency strength of potential agrichemical solvents is evaluated by identifying the solubility level of three standard pesticides in the solvent by weight percent: 2,4-D acid, imidacloprid, and tebuconazole. […] The active material is also accurately weighed before addition. Initial amounts of active material are approximately: 2,4-D: 0.3 g; imidacloprid: 0.02 g; tebuconazole: 0.3 g. Solvent and pesticide active are combined, allowed to mix for 1 h at room temperature, and then inspected for the presence of undissolved active material. Additional active material is added in appropriately small increments until it no longer dissolves completely. This mixture is then stirred for 24 h at room temperature, and if the active has completely dissolved, additional active ingredient is added and the mixture is stirred another 24 h at room temperature. The percent solubility is recorded, and performance is compared with that of a standard agricultural solvent.

[4] = Emulsion stability testing of nonionic emulsifiers, aromatic solvent series; assay type: physicochemical; set-up: key to 24 h separation, appearance / 1 h separation, appearance / 1 h separation, amount: C = creamy; CO = creamy oil; O = oil; GC = gritty cream; NS = no separation; OC = oily cream; key to Spon. (spontaneity): G = good; F = fair; P = poor
Protocol: (§1) Nonionic samples contain a low amount of water (<1%) and are prepared as emulsifiable concentrates with three pesticides using two different solvent systems. In the aromatic solvent series, the nonionic sample replaces Toximul® 8240 (castor oil ethoxylate, 36 POE, Stepan), and in the Hallcomid™ (N,N-dimethylcaprylamide/N,N-dimethylcapramide, Stepan) solvent series, the nonionic sample replaces Ninex® MT-630F.
Sample preparation: Ninate® 60E (calcium alkylbenzenesulfonate, Stepan) and the test sample are stirred until homogeneous. […] Controls 1-3 are made by using Toximul 8240 in the amounts indicated instead of the nonionic sample.
Formulations: • 1. Bifenthrin, 240 g/L (2.99 g), Aromatic 100 (ExxonMobil, 8.05 g), Ninate 60E (0.38 g), and nonionic sample or Toximul 8240 (0.58 g). • 2. 2,4-D ester, 480 g/L (8.90 g), Exxsol® D-110 (ExxonMobil, 2.50 g), Ninate 60E (0.36 g), and nonionic sample or Toximul 8240 (0.24 g). • 3. Tebuconazole, 360 g/L (4.45 g), N-methyl-2-pyrrolidone (6.35 g), Ninate 60E (0.48 g), nonionic sample or Toximul 8240 (0.72 g).
(§2) Emulsion Stability Testing
(§3) A Mohr pipette is used to feed pesticide/surfactant concentrates to each cylinder.

[5] = Emulsion stability testing of nonionic emulsifiers, Hallcomid solvent series; assay type: physicochemical; set-up: key: C = creamy; CO = creamy oil; O = oil; GC = gritty cream; NS = no separation; OC = oily cream; settings: Bifenthrin 240 g/L in Hallcomid M-8-10, 34 ppm water
Protocol: as §1
(§4) Hallcomid Solvent Series.
(§5) Sample preparation: The surfactants are combined and stirred until homogeneous, with the nonionic sample melted if needed prior to combination. Controls 1-3 are made by using Ninex MT-630F in the amounts indicated instead of the nonionic sample.
as §2, §3

[6] = as above; assay type: physicochemical; set-up: key to 24 h separation, appearance / 1 h separation, appearance / 1 h separation, amount: C = creamy; CO = creamy oil; O = oil; GC = gritty cream; NS = no separation; OC = oily cream; key to Spon. (spontaneity): G = good; F = fair; P = poor
Protocol: as §1, §4, §5, §2, §3

[7] = 2,4-D ester 480 g/L in Exxsol D-110, 34 ppm water
[8] = 2,4-D ester 480 g/L in Exxsol D-110, 1000 ppm water
[9] = Bifenthrin 240 g/L in Aromatic 100, 34 ppm water
[10] = Bifenthrin 240 g/L in Aromatic 100, 1000 ppm water
[11] = Tebuconazole 360 g/L in N-methyl-2-pyrrolidone, 34 ppm water
[12] = Tebuconazole 360 g/L in N-methyl-2-pyrrolidone, 1000 ppm water
[13] = 2,4-D diester 480 g/L in Hallcomid M-8-10, 34 ppm water
[14] = 2,4-D diester 480 g/L in Hallcomid M-8-10, 1000 ppm water
[15] = Bifenthrin 240 g/L in Hallcomid M-8-10, 34 ppm water
[16] = Bifenthrin 240 g/L in Hallcomid M-8-10, 1000 ppm water
[17] = Tebuconazole 360 g/L in Hallcomid M-8-10, 34 ppm water
[18] = Tebuconazole 360 g/L in Hallcomid M-8-10, 1000 ppm water

ammonium alkyl ether sulfate [Control 3, reference compound]
Liquid volume at drain time 0.5 min [1]: 0.25 mL | Liquid volume at drain time 1.0 min [1]: 1.00 mL | Liquid volume at drain time 1.5 min [1]: 2.00 mL | Liquid volume at drain time 2.0 min [1]: 3.00 mL | Liquid volume at drain time 2.5 min [1]: 4.00 mL | Liquid volume at drain time 3.0 min [1]: 5.25 mL | Liquid volume at drain time 3.5 min [1]: 6.50 mL | Liquid volume at drain time 4.0 min [1]: 7.50 mL

CCCCCCCCCCCCOCCOCCOCCOCCOCCOCCOCCO [sat. analog of A12-13]
Hexagonal phase region ([2]; in deionized water): 30-67 % Actives Level | Lamellar phase region ([2]; in deionized water): 67-90 % Actives Level

CCCCCCCCCC(=O)N(C)C [N,N-dimethylcapramide, reference compound]
solubility of 2,4-D Acid in the solvent [3]: 45.4 weight percent | solubility of Imidacloprid in the solvent [3]: 4.2 weight percent | solubility of Tebuconazole in the solvent [3]: 38.8 weight percent

CCCCCCCCCCOCCOCCOCCOCCOCCOCCOCCO [sat. analog of A10-13]
Lamellar phase region ([2]; in deionized water): 43-60 % Actives Level

CN1CCCC1=O [N-methyl-2-pyrrolidone, reference compound]
solubility of 2,4-D Acid in the solvent [3]: 39.5 weight percent | solubility of Imidacloprid in the solvent [3]: 29.3 weight percent | solubility of Tebuconazole in the solvent [3]: 62.2 weight percent

CCCCCCCCCCCCOCCOCCOCCOCCOCCOCCOCCOCCOCCOCCOCCOCCOCCOCCOCCO [sat. analog of A12-16]
Cubic phase region ([2]; in deionized water): 28-50 % Actives Level | Hexagonal phase region ([2]; in deionized water): 50-73 % Actives Level | Paste phase region ([2]; in deionized water): 93-100 % Actives Level

CCCCCCCCCCOCCOCCOCCO [sat. analog of A10-7]
combined isotropic phases (clear and opaque), share of the total [2]: about 38% | Isotropic Clear phase region ([2]; in deionized water): 90-100 % Actives Level | Isotropic Opaque phase region ([2]; in deionized water): 0-28 % Actives Level | Lamellar phase region ([2]; in deionized water): 28-90 % Actives Level

CCCCCCCCCCOCCOCCOCCOCCOCCOCCOCCOCCOCCOCCOCCOCCOCCOCCOCCO [sat. analog of A10-16]
Cubic phase region ([2]; in deionized water): 37-55 % Actives Level | Paste phase region ([2]; in deionized water): 93-100 % Actives Level

C=CCCCCCCCCOCCO [A10-4]
1 h separation, amount [4, 7]: 4.5 mL | 1 h separation, appearance [4, 7]: CO | 24 h separation, amount [4, 7]: 2 O, 1 CO, 2 C | Spon. (spontaneity) [4, 7]: P | 1 h separation, amount [4, 8]: 3.8 mL | 1 h separation, appearance [4, 8]: O | 24 h separation, amount [4, 8]: 4 mL | 24 h separation, appearance [4, 8]: O | Spon. (spontaneity) [4, 8]: P | 1 h separation, amount [4, 9]: 7.5 mL | 1 h separation, appearance [4, 9]: CO | 24 h separation, amount [4, 9]: 3 O, 3 CO | Spon. (spontaneity) [4, 9]: P | 1 h separation, amount [4, 10]: 6 mL | 1 h separation, appearance [4, 10]: O | 24 h separation, amount [4, 10]: 6 mL | 24 h separation, appearance [4, 10]: O | Spon. (spontaneity) [4, 10]: P | 1 h separation, amount [4, 11]: 2 mL | 1 h separation, appearance [4, 11]: GC | 24 h separation, amount [4, 11]: 3 mL | 24 h separation, appearance [4, 11]: GC | Spon. (spontaneity) [4, 11]: P | 1 h separation, amount [4, 12]: 3 mL | 1 h separation, appearance [4, 12]: GC | 24 h separation, amount [4, 12]: 4 mL | 24 h separation, appearance [4, 12]: GC | Spon. (spontaneity) [4, 12]: P | 24 h separation, amount [5]: NS | 1 h separation, amount [6, 13]: 6 mL | 1 h separation, appearance [6, 13]: C | 24 h separation, amount [6, 13]: 9.5 mL | 24 h separation, appearance [6, 13]: C | Spon. (spontaneity) [6, 13]: F | 1 h separation, amount [6, 14]: 6.5 mL | 1 h separation, appearance [6, 14]: C | 24 h separation, amount [6, 14]: 8 mL | 24 h separation, appearance [6, 14]: C | Spon. (spontaneity) [6, 14]: F | 1 h separation, amount [6, 15]: NS | Spon. (spontaneity) [6, 15]: F | 1 h separation, amount [6, 16]: Tr. GC, 12 C | 24 h separation, amount [6, 16]: 3.5 O, 3 CO | Spon. (spontaneity) [6, 16]: F | 1 h separation, amount [6, 17]: 3 mL | 1 h separation, appearance [6, 17]: C | 24 h separation, amount [6, 17]: 6.5 mL | 24 h separation, appearance [6, 17]: C | Spon. (spontaneity) [6, 17]: F | 1 h separation, amount [6, 18]: 4 mL | 1 h separation, appearance [6, 18]: C | 24 h separation, amount [6, 18]: 5.8 mL | 24 h separation, appearance [6, 18]: C | Spon. (spontaneity) [6, 18]: F

CCC=CCCCCCCCCOCCO (mixture of isomers) [A12-4]
1 h separation, amount [4, 7]: 6 mL | 1 h separation, appearance [4, 7]: C | 24 h separation, amount [4, 7]: 6.7 mL | 24 h separation, appearance [4, 7]: C | Spon. (spontaneity) [4, 7]: P | 1 h separation, amount [4, 8]: 4.7 mL | 1 h separation, appearance [4, 8]: O | 24 h separation, amount [4, 8]: 4.5 mL | 24 h separation, appearance [4, 8]: O | Spon. (spontaneity) [4, 8]: P | 1 h separation, amount [4, 9]: 8 mL | 1 h separation, appearance [4, 9]: C | Spon. (spontaneity) [4, 9]: P | 1 h separation, amount [4, 10]: 5.2 mL | 1 h separation, appearance [4, 10]: O | 24 h separation, amount [4, 10]: 5.2 mL | 24 h separation, appearance [4, 10]: O | Spon. (spontaneity) [4, 10]: P | 1 h separation, amount [4, 11]: 2.3 mL | 1 h separation, appearance [4, 11]: C | 24 h separation, amount [4, 11]: 2.5 mL | 24 h separation, appearance [4, 11]: GC | Spon. (spontaneity) [4, 11]: P | 1 h separation, amount [4, 12]: 2.3 mL | 1 h separation, appearance [4, 12]: C | 24 h separation, amount [4, 12]: 2.7 mL | 24 h separation, appearance [4, 12]: GC | Spon. (spontaneity) [4, 12]: P | 24 h separation, amount [5]: NS | 1 h separation, amount [6, 13]: 6.2 mL | 1 h separation, appearance [6, 13]: C | 24 h separation, amount [6, 13]: 8.8 mL | 24 h separation, appearance [6, 13]: C | Spon. (spontaneity) [6, 13]: F | 1 h separation, amount [6, 14]: 6.9 mL | 1 h separation, appearance [6, 14]: C | 24 h separation, amount [6, 14]: 8.6 mL | 24 h separation, appearance [6, 14]: C | Spon. (spontaneity) [6, 14]: F | 1 h separation, amount [6, 15]: NS | Spon. (spontaneity) [6, 15]: G | 1 h separation, amount [6, 16]: 11 mL | 1 h separation, appearance [6, 16]: C | 24 h separation, amount [6, 16]: 2 O, 3 CO | Spon. (spontaneity) [6, 16]: F | 1 h separation, amount [6, 17]: 3.1 mL | 1 h separation, appearance [6, 17]: C | 24 h separation, amount [6, 17]: 5.9 mL | 24 h separation, appearance [6, 17]: C | Spon. (spontaneity) [6, 17]: F | 1 h separation, amount [6, 18]: 3.1 mL | 1 h separation, appearance [6, 18]: C | 24 h separation, amount [6, 18]: 6 mL | 24 h separation, appearance [6, 18]: C | Spon. (spontaneity) [6, 18]: F

CCCCCCCCCCCCOCCOCCOCCO [sat. analog of A12-7]
combined isotropic phases (clear and opaque), share of the total [2]: about 38% | Isotropic Clear phase region ([2]; in deionized water): 90-100 % Actives Level | Isotropic Opaque phase region ([2]; in deionized water): 0-28 % Actives Level | Lamellar phase region ([2]; in deionized water): 28-90 % Actives Level

CCCCCCCCCCOCCOCCOCCOCCOCCO [sat. analog of A10-10]
Lamellar phase region ([2]; in deionized water): 55-80 % Actives Level

CCCCCCCCCCCCOCCOCCOCCOCCOCCO [sat. analog of A12-10]
Lamellar phase region ([2]; in deionized water): 40-83 % Actives Level | Lamellar/Isotropic phase region ([2]; in deionized water): 30-40 % Actives Level
